What was measured:
Assay type in all cases: physicochemical
[1] = Oxidative stability: HPLC of flupirtine salts after storage at room temperature under open air; settings: exposed to air, 30 days at room temperature; in contrast to maleate, gluconate or inorganic salts
[2] = as above; settings: for decrease of area under the peak of the flupirtine signal: 0 to 14 days, room temperature, open air; for Flupirtine signal after 14 days (area under the peak in, %): HPLC after 14 days of storage at room temperature under open air; for Flupirtine signal after 0 days (area under the peak in, %): HPLC after isolation and drying
Protocol: HPLC Method [table] HPLC analysis was performed after isolation and drying of flupirtine maleate form A and flupirtine sulfonate salts and repeated after 14 days of storage at room temperature under open air.

[3] = Bulk density of flupirtine salts; settings: volume per 100.0 g of sample material
Protocol: The bulk density was determined as follows: Without increasing its density, sample material (about 4 grams) was introduced into a 10 ml measuring cylinder (±0.2 ml). The volume and the exact weight of the introduced sample material were determined. The bulk density was calculated as volume per 100.0 g of sample material.

[4] = Solubility in demineralised water (photometric); settings: 60 min stirring at 20° C.; for solubility thermodynamic at 60 min: demineralised water
Protocol: […] Subsequently, an aliquot of the solution was centrifuged at 10,000 rpm and the flupirtine absorption was photometrically determined in the supernatant. The amount of flupirtine in solution was calculated with a response factor (absorption/mg substance).

[5] = Discolouration measurements, optical comparison with RAL scale of colours; settings: 60° C. and 70° C., alone and in mixture with MCC, lactose or DiCaPhos, dry and 100% rh
Protocol: Discolouration was measured using optical comparison with a standard: the RAL scale of colours (see list). The colour changes during the experiment were compared to this standard list and the appropriate value was noted. The intensity was increasing on a scale ranging from 1 to 10.
A higher number means more discolouration. The increase in colour intensity is not proportional but qualitative.
The colouration of flupirtine maleate and flupirtine mesilate has been observed at 60° C. and at 70° C. with the substance alone and in mixture with micro crystalline cellulose (MCC), with lactose or with dicalcium phosphate DiCaPhos (CaHPO4). The tests were performed under dry and neat conditions. Neat refers to saturated with moisture, i.e., 100% relative humidity (rh). […] Only with lactose moisture had to be avoided for the mesilate.

| Compound | stability towards oxidation and towards discolouration [1] | decrease of area under the peak of the flupirtine signal [2] | Flupirtine signal after 14 days (area under the peak in, %) [2] | Flupirtine signal after 0 days (area under the peak in, %) [2] | Bulk density [3] | solubility thermodynamic at 60 min [4] | Bulk density ([3]; listed as Maleate Form A) | Solubility [4] | discolouration compared to maleate [5] |
| --- | --- | --- | --- | --- | --- | --- | --- | --- | --- |
| CCOC(=O)Nc1ccc(NCc2ccc(F)cc2)nc1N.O=S(=O)(O)c1ccccc1 [Flupirtine besilate, 2-amino-3-carbethoxyamino-6-(4-fluoro-benzylamino)-pyridine Besilate] | substantially improved stability | less than 0.1% | 96.87% | 96.93% | 358 ml/100 g substance | 32 µg/mL | – | – | – |
| CCOC(=O)Nc1ccc(NCc2ccc(F)cc2)nc1N.O=C(O)/C=C\C(=O)O [Flupirtine maleate A, reference compound] | – | 3.11% | 96.18% | 99.27% | – | – | 686 ml/100 g substance | 1.6 mg/100 ml water | – |
| CCOC(=O)Nc1ccc(NCc2ccc(F)cc2)nc1N.CS(=O)(=O)O [Flupirtine mesilate, 2-amino-3-carbethoxyamino-6-(4-fluoro-benzylamino)-pyridine Mesilate] | substantially improved stability | – | 96.81% | 97.69% | 478 ml/100 g substance | 52 µg/mL | – | – | equal or less discolouration |
| CCOC(=O)Nc1ccc(NCc2ccc(F)cc2)nc1N.Cc1ccc(S(=O)(=O)O)cc1 [Flupirtine tosilate, 2-amino-3-carbethoxyamino-6-(4-fluoro-benzylamino)-pyridine Tosilate] | – | – | – | – | 420 ml/100 g substance | – | – | – | – |
| CCOC(=O)Nc1ccc(NCc2ccc(F)cc2)nc1N.O=C(O)/C=C\C(=O)O [Maleate Form B, reference compound] | – | – | – | – | 1634 ml/100 g substance | – | – | – | – |

— patent US8222282B2, “Sulfonate salts of 2-amino-3-carbethoxyamino-6-(4-fluoro-benzylamino)-pyridine” (Teva Pharmaceuticals USA, Inc., priority 2008, dated 2012)
